According to article PMC6036174 (Frontiers in Microbiology, 2018):
Read-outs that look alike come from different tables or passages of the source.

Experiments:
[1] = test system: A549 lung epithelial cells; assay: A549 cell cytotoxicity (MTT); conditions: 48 h incubation, MTT, called CC50 in methods; for IC50: read-out: Cytotoxicity IC50 A549 cells
[2] = test system: VERO (ATCC CCL-81) normal epithelial cells; assay: VERO cell cytotoxicity (resazurin); conditions: 24 h incubation, called CC50 in methods; for IC50: read-out: Cytotoxicity IC50 VERO cells
M. tuberculosis H37Rv = conditions: M. tuberculosis H37Rv, cited from earlier work
[3] = test system: M. tuberculosis H37Rv (ATCC 27294); assay: resazurin microtiter assay, MIC against M. tuberculosis H37Rv; type: cell-based, Mycobacterium tuberculosis; conditions: 7 days 37°C, 90% inhibition of growth
M. tuberculosis CDC1551 = assay: broth tube MIC (visible pellet) against M. tuberculosis CDC1551; type: cell-based, Mycobacterium tuberculosis; conditions: for MIC100 / MIC / fold increase in potency compared to INH: M. tuberculosis CDC1551; for MIC100 / MIC: 14 days 37°C, no visible pellet; for MIC: read-out: MIC100
G. mellonella larvae = assay: in vivo toxicity in Galleria mellonella larvae; conditions: for % Mortality: 72 h post-injection; for In vivo G. mellonella tolerance order in μmol / In vivo G. mellonella tolerance order in μmol (Normalized against no. of phens): rank; for In vivo G. mellonella tolerance order in μmol: 1st = best tolerated, from Table 2; for In vivo G. mellonella tolerance order in μmol (Normalized against no. of phens): normalized with respect to phen content
Protocol: G. mellonella larvae in the 6th developmental stage were used to determine the in vivo cytotoxicity of the test complexes (Kellett et al., [2011]; Desbois and Coote, [2012]; McCann et al., [2012]). Thirty healthy larvae, each weighing between 0.2 and 0.4 g and with no cuticle discolouration, were used for each experiment. Fresh solutions of the test complexes were prepared immediately prior to testing under sterile conditions. Test compounds (0.05 g) were dissolved in DMSO (1 mL) and added to sterile water (9 mL) to give a stock solution/suspension (5,000 μg/mL). Test solutions/suspensions were prepared from the corresponding stock solution using Millipore water only to dilute to the desired concentration and each compound was screened across the concentration range of 5,000–100 mg/L. Test solutions/suspensions (20 μL) were administered to the larvae by injection directly into the haemocoel through the last pro-leg. The base of the pro-leg can be opened by applying gentle pressure to the sides of the larvae and this aperture will re-seal after removal of the syringe without leaving a scar. Larvae were placed in sterile Petri dishes and incubated at 30°C for 72 h. The survival of the larvae was monitored every 24 h. Death was assessed by the lack of movement in response to stimulus together with discolouration of the cuticle. Three controls were employed in all assays. The first consisted of untouched larvae maintained at the same temperature as the test larvae. The second was larvae with the pro-leg pierced with an inoculation needle but no solution injected. The third control was larvae that were inoculated with 20 μL of sterile water.

[4] = solubility in water (descriptive); type: physicochemical
[5] = 40 μg per larvae (133.33 mg/kg)
[6] = 100 μg per larvae (333.33 mg/kg)

| Compound | Cytotoxicity IC50 A549 cells [1] [mg/L] | Cytotoxicity IC50 VERO cells [2] [mg/L] | IC50 [1] [µM] | IC50 [2] [µM] | MIC (M. tuberculosis H37Rv; ref Hoffman et al., [2013]) [µM] | MIC (M. tuberculosis H37Rv; ref Oliveira et al., [2014]) [µM] | MIC90 [3] [mg/L] | MIC90 ([3]; read-out: MIC90) [µM] | MIC100 (M. tuberculosis CDC1551) [mg/L] | MIC (M. tuberculosis CDC1551) [µM] | % Mortality (G. mellonella larvae; 10 μg per larvae (33.33 mg/kg)) [%] | % Mortality (G. mellonella larvae; 20 μg per larvae (66.67 mg/kg)) [%] | % Mortality (G. mellonella larvae; [5]) [%] | % Mortality (G. mellonella larvae; [6]) [%] | In vivo G. mellonella tolerance order in μmol (G. mellonella larvae) | In vivo G. mellonella tolerance order in μmol (Normalized against no. of phens) (G. mellonella larvae) | solubility in water [4] | fold increase in potency compared to INH (M. tuberculosis CDC1551) [fold] | fold increase in inhibitory activity against CDC1551 relative to H37Rv (M. tuberculosis CDC1551; MIC CDC1551 vs H37Rv) [fold] |
| --- | --- | --- | --- | --- | --- | --- | --- | --- | --- | --- | --- | --- | --- | --- | --- | --- | --- | --- | --- |
| O.O.[Cl-].[Cl-].[Mn+2] [MnCl2·2H2O, reference compound] | 153.4 | 92.1 |  |  |  |  |  |  |  |  |  |  |  |  |  |  |  |  |  |
| [Cl-].[Cl-].[Mn+2] [MnCl2·2H2O, reference compound] |  |  | 947 | 569 |  |  |  |  |  |  |  |  |  |  |  |  |  |  |  |
| O=P([O-])(O)OP(=O)([O-])O.[Co+2].c1cnc2c(c1)ccc1cccnc12.c1cnc2c(c1)ccc1cccnc12 [[Co(phen)2(H2P2O7)]] |  |  |  |  | 2.05 |  |  |  |  |  |  |  |  |  |  |  |  |  |  |
| O.O=P([O-])(O)OP(=O)([O-])O.[Cu+2].c1cnc2c(c1)ccc1cccnc12 [[Cu(phen)(H2O)(H2P2O7)]] |  |  |  |  | 71.53 |  |  |  |  |  |  |  |  |  |  |  |  |  |  |
| CNC(=S)N/N=C(\C)c1ccccn1.CNC(=S)N/N=C(\C)c1ccccn1.[Mn+2] [[Mn(atc-Me)2]] |  |  |  |  |  | 50.69 |  |  |  |  |  |  |  |  |  |  |  |  |  |
| C/C(=N\NC(=S)Nc1ccccc1)c1ccccn1.C/C(=N\NC(=S)Nc1ccccc1)c1ccccn1.[Mn+2] [[Mn(atc-Ph)2]] |  |  |  |  |  | 1.31 |  |  |  |  |  |  |  |  |  |  |  |  |  |
| O.O.O=C([O-])c1ccccc1C(=O)[O-].[Mn+2].c1cnc2c(c1)ccc1cccnc12 [compound 5, [Mn(ph)(phen)(H2O)2]] | 234.51 | 15.6 | 539 | 35.8 |  |  | 0.57 | 1.31 | < 0.19 | < 0.44 | 0 | 80 | 90 | 90 | 6th | 6th | water-insoluble |  |  |
| O.O.O.O.O.O=C([O-])c1ccccc1C(=O)[O-].[Mn+2].c1cnc2c(c1)ccc1cccnc12.c1cnc2c(c1)ccc1cccnc12 [compound 6, [Mn(ph)(phen)2(H2O)]·4H2O] | 259.34 | 11.7 | 387 | 17.5 |  |  | 1.42 | 2.12 | 0.38 | 0.57 | 0 | 80 | 90 | 90 | 7th | 5th | water-insoluble |  |  |
| O.O.O.O.O=C([O-])c1cccc(C(=O)[O-])c1.O=C([O-])c1cccc(C(=O)[O-])c1.[Mn+2].[Mn+2].c1cnc2c(c1)ccc1cccnc12.c1cnc2c(c1)ccc1cccnc12.c1cnc2c(c1)ccc1cccnc12 [compound 7, [Mn2(isoph)2(phen)3]·4H2O] | 255.87 | 125 | 244 | 119 |  |  | 1.56 | 1.48 |  |  | 0 | 60 | 80 | 90 | 4th | 3rd | water-insoluble |  |  |
| O.O.O.O.O.O.O.O.O.O.O.O.O.O.O.O.O=C([O-])c1cccc(C(=O)[O-])c1.O=C([O-])c1cccc(C(=O)[O-])c1.[Mn+2].[Mn+2].c1cnc2c(c1)ccc1cccnc12.c1cnc2c(c1)ccc1cccnc12.c1cnc2c(c1)ccc1cccnc12.c1cnc2c(c1)ccc1cccnc12.c1cnc2c(c1)ccc1cccnc12 [compound 8, {[Mn(phen)2(H2O)2]}2(isoph)2(phen)·12H2O] | 251.76 | 46.9 | 155 | 28.8 |  |  | 3.01 | 1.85 |  |  | 0 | 80 | 90 | 90 | 9th | 5th | water-insoluble | ~3 |  |
| O.O.O.O.O.O=C([O-])c1ccc(C(=O)[O-])cc1.[Mn+2].c1cnc2c(c1)ccc1cccnc12.c1cnc2c(c1)ccc1cccnc12 [compound 9, [Mn(tereph)(phen)2]·5H2O] | 251.94 | 46.9 | 376 | 70 |  |  | 3.41 | 5.09 | 0.38 | 0.57 | 0 | 80 | 90 | 90 | 7th | 5th | water-insoluble |  |  |
| [Cu2(oda)(phen)4](ClO4)2·2.76H2O·EtOH [compound 2] | 0.98 | 11.7 |  | 8.94 |  |  | 16.60 | 12.68 | 1.50 | 1.15 | 0 | 50 | 90 | 90 | 3rd | 2nd | water-soluble |  |  |
| [Mn2(oda)(phen)4(H2O)2][Mn2(oda)(phen)4(oda)2]·4H2O [compound 1] | > 512 | 375 | > 208 | 153 |  |  | 1.15 | 0.47 |  |  | 0 | 40 | 90 | 90 | 1st | 1st | water-soluble | ~3 | 3 |
| {[Cu(3,6,9-tdda)(phen)2]·3H2O·EtOH}n [compound 4] | 1.06 | 5.85 | 1.42 | 7.86 |  |  | 10.03 | 13.48 | 0.75 | 1.01 | 0 | 80 | 90 | 90 | 8th | 6th | water-soluble |  |  |
| {[Mn(3,6,9-tdda)(phen)2]·3H2O·EtOH}n [compound 3] | 261.67 | 62.5 | 356 | 85 |  |  | 0.56 | 0.76 | 0.75 | 1.02 | 0 | 50 | 80 | 90 | 2nd | 2nd | water-soluble |  |  |
